According to patent US20070128217A1 (priority 2003, published 2007):

What was measured:
[1] = test system: control sera (pooled serum of ten healthy LUMC hospital workers; commercial negative donor pooled serum from the Dutch bloodbank); type: binding, human; design: Binding of Control serum LUMC to linear peptides / Binding of Control serum Blood-bank to linear peptides / Binding of Control serum LUMC to looped peptides / Binding of Control Serum Blood-Bank to Looped peptides / Binding of Control serum LUMC to linear peptides of the protein M of SARS-CoV Urbani / Binding of Control serum Blood-bank to linear peptides of the protein M of SARS-CoV Urbani / Binding of Control serum LUMC to looped peptides of the protein M of SARS-CoV Urbani / Binding of Control Serum Blood-Bank to Looped peptides of the protein M of SARS-CoV Urbani: unit not given here
[2] = test system: antibodies in sera from SARS patients (sera 1a, 1b, 2, 6, 37, 62, London, SARS-yellow, SARS-green); type: binding, human; design: Binding of serum 6 to linear peptides of protein X1 of SARS-CoV Urbani / Binding of serum 37 to linear peptides of protein X1 of SARS-CoV Urbani / Binding of serum 6 to looped/cyclic peptide (PEPSCAN-ELISA) / Binding of serum 37 to looped/cyclic peptide (PEPSCAN-ELISA) / Binding of serum 37 to looped/cyclic peptides of protein X1 of SARS-CoV Urbani / Binding of serum 6 to linear peptides of protein X2 / Binding of serum 37 to linear peptides of protein X2 / Binding of serum 37 to looped/cyclic peptides of protein X2 of SARS-CoV Urbani / Binding of serum 6 to linear peptides of protein M of SARS-CoV Urbani / Binding of serum 37 to linear peptides of protein M of SARS-CoV Urbani / Binding of serum 6 to looped/cyclic peptides of protein M of SARS-CoV Urbani / Binding of serum 37 to looped/cyclic peptides of protein M of SARS-CoV Urbani / Binding of serum 6 to linear peptides of protein X3 of SARS-CoV Urbani / Binding of serum 37 to linear peptides of protein X3 of SARS-CoV Urbani / Binding of serum 37 to looped/cyclic peptides of protein X3 of SARS-CoV Urbani / Binding of serum 6 to linear peptides of protein X4 of SARS-CoV Urbani / Binding of serum 37 to linear peptides of protein X4 of SARS-CoV Urbani / Binding of serum 37 to looped/cyclic peptides of protein X4 of SARS-CoV Urbani / Binding of serum 6 to linear peptides of protein X5 of SARS-CoV Urbani / Binding of serum 37 to linear peptides of protein X5 of SARS-CoV Urbani / Binding of serum 37 to looped/cyclic peptides of protein X5 of SARS-CoV Urbani / Binding of serum 6 to linear peptides of protein N of SARS-CoV Urbani / Binding of serum 37 to linear peptides of protein N of SARS-CoV Urbani / Binding of serum 6 to linear peptide (PEPSCAN-ELISA) / Binding of serum 1a to looped/cyclic peptides of protein N of SARS-CoV Urbani / Binding of serum 1b to looped/cyclic peptides of protein N of SARS-CoV Urbani / Binding of serum 2 to looped/cyclic peptides of protein N of SARS-CoV Urbani / Binding of serum 6 to looped/cyclic peptides of protein N of SARS-CoV Urbani / Binding of serum 37 to looped/cyclic peptides of protein N of SARS-CoV Urbani / Binding of serum 62 to looped/cyclic peptides of protein N of SARS-CoV Urbani / Binding of serum London to looped/cyclic peptides of protein N of SARS-CoV Urbani / Binding of serum SARS-green to looped/cyclic peptides of protein N of SARS-CoV Urbani: unit not given here
[3] = test system: rabbit serum obtained by immunizing a rabbit with the SARS-CoV strain Frankfurt 1; type: binding; design: Binding of a rabbit serum to linear peptides / Binding of a rabbit serum to looped peptides / Rabbit serum linear peptides / Rabbit serum looped peptides / Binding of a rabbit serum to linear peptides of protein N of SARS-CoV Urbani (Rabbit serum linear peptides) / Binding of a rabbit serum to looped/cyclic peptides of protein N of SARS-CoV Urbani (Rabbit serum looped peptides): unit not given here

Sequence: NPETNILLNVPLRGT
- Binding of Control Serum Blood-Bank to Looped peptides of the protein M of SARS-CoV Urbani [1]: 0.8
- Binding of Control serum Blood-bank to linear peptides of the protein M of SARS-CoV Urbani [1]: 0.7
- Binding of Control serum LUMC to linear peptides of the protein M of SARS-CoV Urbani [1]: 0.4
- Binding of Control serum LUMC to looped peptides of the protein M of SARS-CoV Urbani [1]: 0.9
- Binding of serum 1a to linear peptides of protein M of SARS-CoV Urbani [2]: 0.8
- Binding of serum 1a to looped/cyclic peptides of protein M of SARS-CoV Urbani [2]: 0.8
- Binding of serum 1b to linear peptides of protein M of SARS-CoV Urbani [2]: 0.6
- Binding of serum 1b to looped/cyclic peptides of protein M of SARS-CoV Urbani [2]: 0.7
- Binding of serum 2 to linear peptides of protein M of SARS-CoV Urbani [2]: 0.8
- Binding of serum 2 to looped/cyclic peptides of protein M of SARS-CoV Urbani [2]: 0.9
- Binding of serum 6 to linear peptides of protein M of SARS-CoV Urbani [2]: 0.3
- Binding of serum 6 to looped/cyclic peptides of protein M of SARS-CoV Urbani [2]: 0.7
- Binding of serum 37 to linear peptides of protein M of SARS-CoV Urbani [2]: 0.9
- Binding of serum 37 to looped/cyclic peptides of protein M of SARS-CoV Urbani [2]: 0.7
- Binding of serum 62 to linear peptides of protein M of SARS-CoV Urbani [2]: 0.9
- Binding of serum 62 to looped/cyclic peptides of protein M of SARS-CoV Urbani [2]: 0.7
- Binding of serum London to linear peptides of protein M of SARS-CoV Urbani [2]: 0.3
- Binding of serum London to looped/cyclic peptides of protein M of SARS-CoV Urbani [2]: 0.3
- Binding of serum SARS-green to linear peptides of protein M of SARS-CoV Urbani [2]: 0.3
- Binding of serum SARS-green to looped/cyclic peptides of protein M of SARS-CoV Urbani [2]: 0.4
- Binding of serum SARS-yellow to linear peptides of protein M of SARS-CoV Urbani [2]: 0.1
- Binding of serum SARS-yellow to looped/cyclic peptides of protein M of SARS-CoV Urbani [2]: 0.7
- Rabbit serum linear peptides [3]: 0.4
- Rabbit serum looped peptides [3]: 0.2

Sequence: NPLLYDANYFVCWHT
- Binding of Control Serum Blood-Bank to Looped peptides [1]: 0.7
- Binding of Control serum Blood-bank to linear peptides [1]: 0.6
- Binding of Control serum LUMC to linear peptides [1]: 0.6
- Binding of Control serum LUMC to looped peptides [1]: 0.6
- Binding of serum 1a to linear peptides of protein X1 of SARS-CoV Urbani [2]: 0.9
- Binding of serum 1a to looped/cyclic peptide (PEPSCAN-ELISA) [2]: 0.5
- Binding of serum 1b to linear peptides of protein X1 of SARS-CoV Urbani [2]: 0.6
- Binding of serum 1b to looped/cyclic peptide (PEPSCAN-ELISA) [2]: 0.4
- Binding of serum 2 to linear peptides of protein X1 of SARS-CoV Urbani [2]: 0.6
- Binding of serum 2 to looped/cyclic peptide (PEPSCAN-ELISA) [2]: 0.4
- Binding of serum 6 to linear peptides of protein X1 of SARS-CoV Urbani [2]: 0.5
- Binding of serum 6 to looped/cyclic peptide (PEPSCAN-ELISA) [2]: 0.3
- Binding of serum 37 to linear peptides of protein X1 of SARS-CoV Urbani [2]: 0.8
- Binding of serum 37 to looped/cyclic peptide (PEPSCAN-ELISA) [2]: 0.5
- Binding of serum 62 to linear peptides of protein X1 of SARS-CoV Urbani [2]: 0.7
- Binding of serum 62 to looped/cyclic peptide (PEPSCAN-ELISA) [2]: 0.6
- Binding of serum London to linear peptides of protein X1 of SARS-CoV Urbani [2]: 0.3
- Binding of serum London to looped/cyclic peptide (PEPSCAN-ELISA) [2]: 0.2
- Binding of serum SARS-green to linear peptides of protein X1 of SARS-CoV Urbani [2]: 0.4
- Binding of serum SARS-green to looped/cyclic peptide (PEPSCAN-ELISA) [2]: 0.3
- Binding of serum SARS-yellow to linear peptides of protein X1 of SARS-CoV Urbani [2]: 0.4
- Binding of serum SARS-yellow to looped/cyclic peptide (PEPSCAN-ELISA) [2]: 0.4
- Binding of a rabbit serum to linear peptides [3]: 0.2
- Binding of a rabbit serum to looped peptides [3]: 0.6

Sequence: NRFLYIIKLVFLWLL
- Binding of Control Serum Blood-Bank to Looped peptides of the protein M of SARS-CoV Urbani [1]: 0.7
- Binding of Control serum Blood-bank to linear peptides of the protein M of SARS-CoV Urbani [1]: 0.7
- Binding of Control serum LUMC to linear peptides of the protein M of SARS-CoV Urbani [1]: 0.3
- Binding of Control serum LUMC to looped peptides of the protein M of SARS-CoV Urbani [1]: 0.6
- Binding of serum 1a to linear peptides of protein M of SARS-CoV Urbani [2]: 0.7
- Binding of serum 1b to linear peptides of protein M of SARS-CoV Urbani [2]: 0.5
- Binding of serum 2 to linear peptides of protein M of SARS-CoV Urbani [2]: 0.5
- Binding of serum 6 to linear peptides of protein M of SARS-CoV Urbani [2]: 0.3
- Binding of serum 37 to linear peptides of protein M of SARS-CoV Urbani [2]: 0.7
- Binding of serum 62 to linear peptides of protein M of SARS-CoV Urbani [2]: 0.7
- Binding of serum London to linear peptides of protein M of SARS-CoV Urbani [2]: 0.3
- Binding of serum SARS-green to linear peptides of protein M of SARS-CoV Urbani [2]: 0.3
- Binding of serum SARS-yellow to linear peptides of protein M of SARS-CoV Urbani [2]: 0.1
- Recognition of the peptide by sera of SARS-CoV infected individuals, and form (linear, looped/cyclic) in which it is recognized [2]: recognized in looped/cyclic form
- Rabbit serum linear peptides [3]: 0.4
- Rabbit serum looped peptides [3]: 0.3

Sequence: NRNRFLYIIKLVFLW
- Binding of Control Serum Blood-Bank to Looped peptides of the protein M of SARS-CoV Urbani [1]: 0.8
- Binding of Control serum Blood-bank to linear peptides of the protein M of SARS-CoV Urbani [1]: 0.7
- Binding of Control serum LUMC to linear peptides of the protein M of SARS-CoV Urbani [1]: 0.4
- Binding of Control serum LUMC to looped peptides of the protein M of SARS-CoV Urbani [1]: 0.7
- Binding of serum 1a to linear peptides of protein M of SARS-CoV Urbani [2]: 0.7
- Binding of serum 1b to linear peptides of protein M of SARS-CoV Urbani [2]: 0.4
- Binding of serum 2 to linear peptides of protein M of SARS-CoV Urbani [2]: 0.6
- Binding of serum 6 to linear peptides of protein M of SARS-CoV Urbani [2]: 0.3
- Binding of serum 37 to linear peptides of protein M of SARS-CoV Urbani [2]: 0.7
- Binding of serum 62 to linear peptides of protein M of SARS-CoV Urbani [2]: 0.7
- Binding of serum London to linear peptides of protein M of SARS-CoV Urbani [2]: 0.3
- Binding of serum SARS-green to linear peptides of protein M of SARS-CoV Urbani [2]: 0.3
- Binding of serum SARS-yellow to linear peptides of protein M of SARS-CoV Urbani [2]: 0.1
- Recognition of the peptide by sera of SARS-CoV infected individuals, and form (linear, looped/cyclic) in which it is recognized [2]: recognized in looped/cyclic form
- Rabbit serum linear peptides [3]: 0.5
- Rabbit serum looped peptides [3]: 0.4

Sequence: NRYRIGNYKLNTDHA
- Binding of Control Serum Blood-Bank to Looped peptides of the protein M of SARS-CoV Urbani [1]: 0.7
- Binding of Control serum Blood-bank to linear peptides of the protein M of SARS-CoV Urbani [1]: 0.2
- Binding of Control serum LUMC to linear peptides of the protein M of SARS-CoV Urbani [1]: 0.2
- Binding of Control serum LUMC to looped peptides of the protein M of SARS-CoV Urbani [1]: 0.7
- Binding of serum 1a to linear peptides of protein M of SARS-CoV Urbani [2]: 0.8
- Binding of serum 1a to looped/cyclic peptides of protein M of SARS-CoV Urbani [2]: 0.8
- Binding of serum 1b to linear peptides of protein M of SARS-CoV Urbani [2]: 0.6
- Binding of serum 1b to looped/cyclic peptides of protein M of SARS-CoV Urbani [2]: 0.6
- Binding of serum 2 to linear peptides of protein M of SARS-CoV Urbani [2]: 0.5
- Binding of serum 2 to looped/cyclic peptides of protein M of SARS-CoV Urbani [2]: 0.5
- Binding of serum 6 to linear peptides of protein M of SARS-CoV Urbani [2]: 0.3
- Binding of serum 6 to looped/cyclic peptides of protein M of SARS-CoV Urbani [2]: 0.7
- Binding of serum 37 to linear peptides of protein M of SARS-CoV Urbani [2]: 0.5
- Binding of serum 37 to looped/cyclic peptides of protein M of SARS-CoV Urbani [2]: 0.6
- Binding of serum 62 to linear peptides of protein M of SARS-CoV Urbani [2]: 0.6
- Binding of serum 62 to looped/cyclic peptides of protein M of SARS-CoV Urbani [2]: 0.5
- Binding of serum London to linear peptides of protein M of SARS-CoV Urbani [2]: 0.2
- Binding of serum London to looped/cyclic peptides of protein M of SARS-CoV Urbani [2]: 0.4
- Binding of serum SARS-green to linear peptides of protein M of SARS-CoV Urbani [2]: 0.2
- Binding of serum SARS-green to looped/cyclic peptides of protein M of SARS-CoV Urbani [2]: 0.3
- Binding of serum SARS-yellow to linear peptides of protein M of SARS-CoV Urbani [2]: 0.1
- Binding of serum SARS-yellow to looped/cyclic peptides of protein M of SARS-CoV Urbani [2]: 0.9
- Rabbit serum linear peptides [3]: 0.2
- Rabbit serum looped peptides [3]: 0.3
